Test results taken from PMC12261219, “Comparative Evaluation of Thiol- and Amine-Conjugating Moieties for Endogenous Albumin Binding after Intravenous Administration” (ACS Pharmacology & Translational Science, 2025).
“And” between values parts separate entries of the source, which are not always exact repeats. Identical values can stand only once.

Assays:
[1] = Reduction with ascorbic acid, release of oxaliplatin (HPLC); assay type: physicochemical; conditions: 0.5 mM, 150 mM PB, pH 7.4, 20 °C, 30 eq. ascorbic acid
Description: The samples were incubated at 20 °C and measured over 25 h. […] RP-HPLC runs were performed using a Waters Acquity UPLC HSS T3 column (100 Å, 1.8 μm, 3.0 mm × 50 mm) on a Dionex Thermo Scientific UltiMate 3000 HPLC system, equipped with a HPG-3400RS binary pump and a DAD-3000RS UV–vis detector. Chromatograms were evaluated at a wavelength of 230 nm. Milli-Q water (mobile phase A) and acetonitrile (mobile phase B), both containing 0.1% TFA, were used as eluents. The flow rate was consistent at 0.6 mL/min for all measurements using the following gradient: 0–0.5 min A 99:1 B, 0.5–5.5 min linear gradient to A 1:99 B, 5.5–6.5 min A 1:99 B, 6.5–9.2 min A 99:1 B.

albumin (human serum) = target: T1, albumin (human serum) (Homo sapiens, UniProt P02768); experiment: SEC-ICP-MS albumin binding in human serum; assay type: in vitro ADME; conditions: for Pt195 in HMWF (albumin-bound) / Pt195 in LMWF: 100 µM, 37 °C
T1 construct: Human serum was purchased from Sigma-Aldrich; tissue Sigma-Aldrich; host or cells: human serum
T1 sequence (P02768 25-609): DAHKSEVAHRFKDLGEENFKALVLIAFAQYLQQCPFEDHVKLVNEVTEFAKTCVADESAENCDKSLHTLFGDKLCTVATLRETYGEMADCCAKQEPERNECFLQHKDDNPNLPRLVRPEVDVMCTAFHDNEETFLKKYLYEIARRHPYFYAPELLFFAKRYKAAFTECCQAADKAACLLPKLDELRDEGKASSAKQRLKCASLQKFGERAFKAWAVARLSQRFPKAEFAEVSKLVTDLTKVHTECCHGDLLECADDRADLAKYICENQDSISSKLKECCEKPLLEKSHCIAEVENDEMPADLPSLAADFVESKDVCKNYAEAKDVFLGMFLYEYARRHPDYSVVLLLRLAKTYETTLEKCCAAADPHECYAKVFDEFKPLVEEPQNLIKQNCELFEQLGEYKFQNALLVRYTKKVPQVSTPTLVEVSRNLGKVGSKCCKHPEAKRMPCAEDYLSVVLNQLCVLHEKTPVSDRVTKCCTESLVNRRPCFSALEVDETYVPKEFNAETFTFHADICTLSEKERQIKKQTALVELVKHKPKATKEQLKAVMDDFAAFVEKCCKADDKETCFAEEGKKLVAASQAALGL
Description: (§1) Blood of Bab/c mice was collected under anesthesia via heart puncture. […] Human serum was purchased from Sigma-Aldrich. In order to guarantee a stable pH, all sera were buffered with 150 mM phosphate to pH 7.4 by dissolving the necessary amounts of Na2HPO4 and NaH2PO4 directly in the serum. […] The samples were then incubated in the autosampler at 37 °C and analyzed every hour for 4 or 5 h and after 24 h. Between each sample a pure water blank was measured. For measurements with 10 min intervals the same procedure was followed, but the blank measurements were omitted. For SEC-ICP-MS measurements an Agilent 1260 Infinity system coupled to an Agilent 7800 ICP-HRMS equipped with a dynamic reaction cell was used. Oxygen (purity 5.5, Messer Austria GmbH, Gumpoldskirchen, Austria) was used as reaction gas.

α1-antitrypsin = target: T2, α1-antitrypsin (Homo sapiens, UniProt P01009); experiment: SEC-ICP-MS with single serum protein solution: α1-antitrypsin; assay type: binding; conditions: 200 μM α1-antitrypsin, 100 μM compound, 100 mM PB pH 7.4, 37 °C, 2 h
T2 construct: purchased Sigma-Aldrich A6150
T2 sequence (P01009 25-418): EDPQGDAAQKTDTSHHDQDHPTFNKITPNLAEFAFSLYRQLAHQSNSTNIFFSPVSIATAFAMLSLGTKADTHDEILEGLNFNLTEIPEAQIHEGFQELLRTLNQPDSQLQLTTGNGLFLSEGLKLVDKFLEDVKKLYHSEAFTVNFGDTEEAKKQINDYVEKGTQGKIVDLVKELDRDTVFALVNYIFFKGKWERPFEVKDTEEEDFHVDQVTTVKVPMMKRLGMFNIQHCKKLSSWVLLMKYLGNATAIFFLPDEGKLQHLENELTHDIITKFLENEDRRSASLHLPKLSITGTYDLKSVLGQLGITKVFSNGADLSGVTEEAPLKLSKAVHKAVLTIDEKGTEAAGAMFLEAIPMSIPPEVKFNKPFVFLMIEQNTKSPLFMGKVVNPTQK
Description: All investigated proteins were purchased from commercial suppliers: Albumin (Sigma-Aldrich, A8763), IgG (Athens Research, 16–16–090707), α1-antitrypsin (Sigma-Aldrich, A6150) and apotransferrin (Sigma-Aldrich, T1147). […] The compound stocks were diluted into the protein solution to reach a final concentration of 100 μM (27 μL protein and 3 μL compound). The samples were incubated at 37 °C for 2 h and analyzed as described for the SEC-ICP-MS studies (Tables S6 and S7).

albumin (mouse serum) = target: T3, albumin (mouse serum) (Mus musculus, UniProt P07724); experiment: SEC-ICP-MS albumin binding in mouse serum; assay type: in vitro ADME; conditions: 100 µM, 37 °C
T3 construct: The serum was separated by centrifugation (two times 10 min at 900 g) after 10–20 min clotting at room temperature; from tissue; host or cells: serum of Balb/c mice
T3 sequence (P07724 25-608): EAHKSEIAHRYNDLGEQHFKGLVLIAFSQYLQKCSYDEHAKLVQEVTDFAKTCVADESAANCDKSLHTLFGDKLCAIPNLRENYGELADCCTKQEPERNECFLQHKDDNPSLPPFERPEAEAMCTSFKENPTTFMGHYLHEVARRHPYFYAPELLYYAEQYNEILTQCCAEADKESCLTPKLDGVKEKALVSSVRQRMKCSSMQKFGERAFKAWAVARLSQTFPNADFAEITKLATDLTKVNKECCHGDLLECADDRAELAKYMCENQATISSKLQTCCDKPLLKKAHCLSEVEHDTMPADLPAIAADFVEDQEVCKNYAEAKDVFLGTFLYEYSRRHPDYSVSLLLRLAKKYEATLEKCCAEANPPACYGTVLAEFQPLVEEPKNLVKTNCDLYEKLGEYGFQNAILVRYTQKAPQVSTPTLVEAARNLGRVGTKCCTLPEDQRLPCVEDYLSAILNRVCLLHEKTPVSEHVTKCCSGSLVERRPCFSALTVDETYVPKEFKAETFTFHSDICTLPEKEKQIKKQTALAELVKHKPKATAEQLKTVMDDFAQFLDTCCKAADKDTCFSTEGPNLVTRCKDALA
Description: as §1

[2] = Serum pharmacokinetics (platinum, ICP-MS) in CT26-bearing Balb/c mice
Description: CT26 cells (5 × 10^5 in 50 μL serum-free medium) were injected subcutaneously (s.c.) into the right flank of male Balb/c mice. […] The blood, tumor and organ collection followed the study design in Figure A. Briefly, to assess serum platinum levels, blood was collected after 5 min, 30 min, 5 h and 24 h (2 mice per time point) via the facial vein. The serum was separated by centrifugation (two times 10 min at 900 g) after 10 min clotting at room temperature. […] All collected samples were stored at −20 °C and further processed for platinum measurements via ICP-MS as follows: HNO3 (67–69%, suprapur for trace metal analysis, NORMATOM; Distributor: VWR international, Austria) and conc. H2O2 suprapur (Merck, 30%) were used without further purification. Digestion of tissue (approximately 15–30 mg gravimetrically weighted) was performed with 2 mL of approximately 20% HNO3 and 100 μL H2O2 using an open vessel graphite digestion system (coated graphite heating plate, coated sample holder-top for 25 mL vials, PFA vials and PFA lids; Labter, ODLAB; Distributor: AHF Analysentechnik AG; Germany). Digested samples were diluted in Milli-Q water (18.2 MΩ cm, Milli-Q Advantage, Darmstadt, Germany). For the ICP-MS analysis, platinum and rhenium standards were derived from CPI International (Amsterdam, The Netherlands). The total platinum content was determined with a quadrupole-based Agilent 7800 ICP-MS instrument (Agilent Technologies, Tokyo, Japan) equipped with the Agilent SPS 4 autosampler (Agilent Technologies, Tokyo, Japan) and a MicroMist nebulizer at a sample uptake rate of approximately 0.2 mL/min. An RF power of 1550 W was used as well as nickel cones. Argon was used as plasma gas (15 L/min) and as carrier gas (∼1.1 L/min). The dwell time was set to 0.1 s and the measurements were performed in 6 replicates with 100 sweeps. Rhenium served as internal standard for platinum. The Agilent MassHunter software package (Workstation Software, version C.01.04) was used for data processing.
As platinum was measured in serum, equimolar administered doses were adjusted to correspond to platinum (0.0227 mmol, 4.42 mg platinum). The area under the “concentration”–time curve (AUC) was determined from time 0 to infinity (AUCPt_0‑∞) and from time 0 to 24 h (AUCPt_0–24, based on the last observed sample at 24 h; linear-log trapezoidal calculation method). The terminal slope (λ z ) was determined based on the last two (out of four) measurements (times 5 h and 24 h).

[3] = Hydrolytic stability in buffer (HPLC); assay type: physicochemical; conditions: 0.5 mM
Description: The samples were incubated at 20 °C and measured over 25 h. Reversed phase high-performance liquid chromatography (RP-HPLC) runs were performed using a Waters Acquity UPLC BEH C18 column (130 Å, 1.7 μm, 3 mm × 50 mm) on a Dionex Thermo Scientific UltiMate 3000 HPLC system, equipped with a HPG-3400RS binary pump and a DAD-3000 UV–vis detector. Chromatograms were evaluated at a wavelength of 220 nm. Milli-Q water (mobile phase A) and acetonitrile (mobile phase B), both containing 0.1% TFA, were used as eluents. The flow rate was consistent at 0.6 mL/min for all measurements using the following gradient: 0–0.5 min A 95:5 B, 0.5–5.5 min linear gradient to A 5:95 B, 5.5–6.5 min A 5:95 B, 6.5–9.2 min A 95:5 B. The same conditions were applied for stability measurements in 100 mM PB at pH 5.5 and 6.5 as well as in 20 mM HEPES and MOPS at pH 7.4. RP-HPLC-MS analyses of the same samples after the stability measurements were conducted on a Waters Acquity UPLC BEH C18 column (130 Å, 1.7 μm, 3 mm × 50 mm) on an Agilent 1260 Infinity II system equipped with a Flexible pump, a 1260 VWD UV–vis detector and the LC–MSD system. Chromatograms were evaluated at a wavelength of 220 nm. Milli-Q water (mobile phase A) and acetonitrile (mobile phase B), both containing 0.1% formic acid, were used as eluents. The flow rate was consistent at 0.6 mL/min for all measurements using the following gradient: 0–0.5 min A 95:5 B, 0.5–6.0 min linear gradient to A 5:95 B, 6.0–7.0 min A 5:95 B, 7.0–7.1 min linear gradient to A 95:5 B, 7.1–8.0 min A 95:5 B.

[4] = pH 7.4, 10 min intervals, 0 min
[5] = pH 7.4, 10 min intervals, 10 min
[6] = pH 7.4, 10 min intervals, 20 min
[7] = pH 7.4, 10 min intervals, 30 min
[8] = pH 7.4, 10 min intervals, 40 min
[9] = pH 7.4, 10 min intervals, 50 min
[10] = pH 7.4, 10 min intervals, 60 min

CC(=O)[O][Pt-2]12([O]C(=O)NCCOCCOCCOCCOc3ccc(-c4nnc(S(C)(=O)=O)o4)cc3)([NH2+][C@@H]3CCCC[C@H]3[NH2+]1)[O]C(=O)C(=O)[O]2 [PODS-Ox-OAc, (OC-6–34)-Acetato[(1R,2R)-1,2-cyclohexane-1,2-diamino][(2-(2-(2-(2-(4-(5-(methylsulfonyl)-1,3,4-oxadiazol-2-yl)-phenoxy)-ethoxy)-ethoxy)-ethoxy)-ethyl)-carbamato]-oxalato platinum(IV)]
Oxaliplatin detected (released) after 25 h [1]: 9% | Pt195 in HMWF (albumin-bound) (albumin (human serum); pH 7.4, 0 h): 2% and < 5% | Pt195 in LMWF (albumin (human serum); pH 7.4, 0 h): 98% | Pt195 in HMWF (albumin-bound) (albumin (human serum); pH 7.4, 1 h): 87% and ~90% | Pt195 in LMWF (albumin (human serum); pH 7.4, 1 h): 13% | Pt195 in HMWF (albumin-bound) (albumin (human serum); pH 7.4, 2 h): 91% | Pt195 in LMWF (albumin (human serum); pH 7.4, 2 h): 9% | Pt195 in HMWF (albumin-bound) (albumin (human serum); pH 7.4, 3 h): 92% | Pt195 in LMWF (albumin (human serum); pH 7.4, 3 h): 8% | Pt195 in HMWF (albumin-bound) (albumin (human serum); pH 7.4, 4 h): 92% | Pt195 in LMWF (albumin (human serum); pH 7.4, 4 h): 8% | Pt195 in HMWF (albumin-bound) (albumin (human serum); pH 7.4, 5 h): 92% | Pt195 in LMWF (albumin (human serum); pH 7.4, 5 h): 8% | Pt195 in HMWF (albumin-bound) (albumin (human serum); pH 7.4, 24 h): 92% | Pt195 in LMWF (albumin (human serum); pH 7.4, 24 h): 8% | Bound to albumin (albumin (human serum); from 1 to 24 h): ~90% | Platinum in the HMWF (protein-bound) (α1-antitrypsin): ~30% | Pt195 in HMWF (albumin-bound) (albumin (mouse serum); [4]): 34% | Pt195 in LMWF (albumin (mouse serum); [4]): 66% | Pt195 in HMWF (albumin-bound) (albumin (mouse serum); [5]): 59% and ~60% | Pt195 in LMWF (albumin (mouse serum); [5]): 41% | Pt195 in HMWF (albumin-bound) (albumin (mouse serum); [6]): 71% | Pt195 in LMWF (albumin (mouse serum); [6]): 29% | Pt195 in HMWF (albumin-bound) (albumin (mouse serum); [7]): 78% | Pt195 in LMWF (albumin (mouse serum); [7]): 22% | Pt195 in HMWF (albumin-bound) (albumin (mouse serum); [8]): 83% | Pt195 in LMWF (albumin (mouse serum); [8]): 17% | Pt195 in HMWF (albumin-bound) (albumin (mouse serum); [9]): 85% | Pt195 in LMWF (albumin (mouse serum); [9]): 15% | Pt195 in HMWF (albumin-bound) (albumin (mouse serum); [10]): 87% | Pt195 in LMWF (albumin (mouse serum); [10]): 13% | Pt195 in HMWF (albumin-bound) (albumin (mouse serum); pH 7.4, 1 h intervals, 0 h): 30% | Pt195 in LMWF (albumin (mouse serum); pH 7.4, 1 h intervals, 0 h): 70% | Pt195 in HMWF (albumin-bound) (albumin (mouse serum); pH 7.4, 1 h intervals, 1 h): 82% and ~80% | Pt195 in LMWF (albumin (mouse serum); pH 7.4, 1 h intervals, 1 h): 18% | Pt195 in HMWF (albumin-bound) (albumin (mouse serum); pH 7.4, 1 h intervals, 2 h): 80% | Pt195 in LMWF (albumin (mouse serum); pH 7.4, 1 h intervals, 2 h): 20% | Pt195 in HMWF (albumin-bound) (albumin (mouse serum); pH 7.4, 1 h intervals, 3 h): 80% | Pt195 in LMWF (albumin (mouse serum); pH 7.4, 1 h intervals, 3 h): 20% | Pt195 in HMWF (albumin-bound) (albumin (mouse serum); pH 7.4, 1 h intervals, 4 h): 79% | Pt195 in LMWF (albumin (mouse serum); pH 7.4, 1 h intervals, 4 h): 21% | Pt195 in HMWF (albumin-bound) (albumin (mouse serum); pH 7.4, 1 h intervals, 24 h): 80% | Pt195 in LMWF (albumin (mouse serum); pH 7.4, 1 h intervals, 24 h): 20% | Serum platinum level higher than after Mal-Ox-OAc treatment ([2]; at 5 and 30 min, i.v.): about 50% | Cmax ([2]; serum platinum, measured at tmax=0.08 h, single i.v. dose 4.42 mg/kg Pt): 52.5 mg/kg | Percentage of AUCPt_0-∞ extrapolated from tlast to infinity ([2]; serum platinum, tlast=24 h): 25.5% | Half-life ([2]; terminal half-life, serum platinum, i.v.): 13.6 h | CL ([2]; total body clearance, serum platinum, single i.v. dose 4.42 mg/kg Pt): 0.00693 kg/h/kg | Vz ([2]; volume of distribution based on the terminal phase, serum platinum, i.v.): 0.136 kg/kg | Intact compound after 25 h ([3]; 20 mM HEPES, pH 7.4, 20 °C): 54% | Intact compound after 25 h ([3]; 20 mM MOPS, pH 7.4, 20 °C): 76% | Intact compound after 25 h ([3]; 100 mM PB, pH 5.5, 20 °C): 99% | Intact compound after 25 h ([3]; 100 mM PB, pH 6.5, 20 °C): 94% | Intact compound after 25 h ([3]; 100 mM PB, pH 7.4, 20 °C): 70%
